Patent US10183953B2, “Substituted 2-azabicycles and their use as orexin receptor modulators” (Janssen Pharmaceutica NV, priority 2013, dated 2019)

Assays:
[1] = target: human orexin 2 receptor (Homo sapiens (Human), UniProt O43614); experiment: Human orexin 2 receptor radioligand binding ([3H]-EMPA, HEK293 membranes); conditions: human OX2 receptor binding; averages from between 2-20 runs; read-out: hOX2 Ki
Procedure: (§1) The in vitro affinity of the compounds of the invention for the rat/human orexin 1 and human orexin 2 receptors was determined by competitive radioligand binding using [^3H]
(§2) Data are analyzed using pc-Sandy macro and graphed on Graphpad Prism 5. For analysis, each concentration point is averaged from triplicate values and the averaged values are plotted on Graphpad Prism. The IC50 was determined by applying the following equation (GraphPad Prism 5.0, SanDiego) for one site competition where X=log (concentration) and Y=specific binding. […] Graphpad Prism calculates Ki value from IC50 and the pre-determined Kd values for [^3H]-(1-(5-(2-fluoro-phenyl)-2-methyl-thiazol-4-yl)-1-((S)-2-(5-phenyl-(1,3,4)oxadiazol-2-ylmethyl)-pyrrolidin-1-yl)-methanone) and [3H]-EMPA. […]
HEK293 stably expressing human orexin 2 receptor (Genebank accession number NM_001526) were grown to confluency in DMEM (Hyclone, cat #SH30022), 10% FBS, 1×Pen/Strep, 1× NaPyruvate, 10 mM HEPES, 600 ug/ml G418 media on 150 cm^2 tissue culture plates, washed with 5 mM EDTA in PBS (HyClone Dulbecco's Phosphate Buffered Saline 1× with Calcium and Magnesium, Cat #SH30264.01, hereafter referred to simply as PBS) and scraped into 50 ml tubes. […] Total and nonspecific binding was determined in the absence and presence of 10 μM almorexant. […]

[2] = target: rat orexin 1 receptor (Rattus norvegicus, UniProt P56718); experiment: Rat orexin 1 receptor radioligand binding (competitive, HEK293 membranes); conditions: rat OX1 receptor binding; averages from between 2-20 runs; read-out: rOX1 Ki
Procedure: as §1, §2
(§3) After centrifugation (2K×G, 5 min at 4° C.), the supernatant was aspirated and the pellets frozen and stored at −80° C. […] Total and nonspecific binding was determined in the absence and presence of 10 μM almorexant. […] Plates were dried in 55° C. oven for 60 min, scintillation fluid was added, and the radioactivity was counted on a Topcount (Packard).

[3] = target: human orexin 1 receptor (Homo sapiens (Human), UniProt O43613); experiment: Human orexin 1 receptor radioligand binding (competitive, CHO membranes); conditions: human OX1 receptor binding; averages from between 2-20 runs; read-out: hOX1 Ki
Chain of human orexin 1 receptor (O43613 whole entry): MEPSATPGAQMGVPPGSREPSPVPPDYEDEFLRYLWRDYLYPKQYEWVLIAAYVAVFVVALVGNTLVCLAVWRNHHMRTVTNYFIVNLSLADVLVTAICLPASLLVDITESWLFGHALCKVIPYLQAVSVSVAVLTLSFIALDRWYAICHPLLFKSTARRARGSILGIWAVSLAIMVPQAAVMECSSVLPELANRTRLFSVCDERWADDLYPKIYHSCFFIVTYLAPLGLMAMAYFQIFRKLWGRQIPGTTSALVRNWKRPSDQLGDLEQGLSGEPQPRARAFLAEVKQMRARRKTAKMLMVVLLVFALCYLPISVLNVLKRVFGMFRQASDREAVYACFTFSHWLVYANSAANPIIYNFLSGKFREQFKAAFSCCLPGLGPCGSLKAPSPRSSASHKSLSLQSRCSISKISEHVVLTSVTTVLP
Procedure: as §1, §2, §3

Chain of human orexin 2 receptor (O43614 whole entry): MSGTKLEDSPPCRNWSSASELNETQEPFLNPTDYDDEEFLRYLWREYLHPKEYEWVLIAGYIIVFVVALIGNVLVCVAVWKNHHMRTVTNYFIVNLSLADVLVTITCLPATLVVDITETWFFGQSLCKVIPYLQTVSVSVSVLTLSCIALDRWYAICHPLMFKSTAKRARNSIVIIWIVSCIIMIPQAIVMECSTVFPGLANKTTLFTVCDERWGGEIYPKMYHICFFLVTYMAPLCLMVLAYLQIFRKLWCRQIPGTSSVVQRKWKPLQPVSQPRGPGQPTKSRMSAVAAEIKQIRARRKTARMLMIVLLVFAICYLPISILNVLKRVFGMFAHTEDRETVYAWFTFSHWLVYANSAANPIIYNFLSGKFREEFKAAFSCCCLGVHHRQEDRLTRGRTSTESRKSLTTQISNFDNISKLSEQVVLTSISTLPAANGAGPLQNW

Ki [1]: 456 nM
Ki [2]: 9 nM
Ki [3]: 7 nM
SMILES: O=C(c1cccc(F)c1-c1ncccn1)N1C[C@@H]2CC[C@H]1[C@H](Nc1cnc(C(F)(F)F)cn1)C2 [Example 80, (3-fluoro-2-(pyrimidin-2-yl)phenyl)((1S,4R,6R)-6-((5-(trifluoromethyl)pyrazin-2-yl)amino)-2-azabicyclo[2.2.2]octan-2-yl)methanone]
